The record followed here is ChEMBL document CHEMBL5055624, “Structural Determinants for the Mode of Action of Imidazopyridine DS2 at δ-Containing γ-Aminobutyric Acid Type A Receptors” (J Med Chem, 2021).

The nature of series [1]: Solubility of compound. It is filed as physicochemical.
Series [2] has as its target Gamma-aminobutyric acid receptor subunit alpha-4/beta-1/delta (Homo sapiens, UniProt O14764+P18505+P48169). As to the kind of experiment: Positive allosteric modulation of human recombinant alpha4beta1delta GABAA receptor expressed in delta-HEK cells assessed as potentiation of GABA-induced response in presence of GABA EC20 by FMP assay. It is filed as cell-based, HEK293.

Series [3] relates to GABAA receptor alpha4beta1delta (Homo sapiens). Briefly: Positive allosteric modulation of human recombinant alpha4beta1delta GABAA receptor expressed in HEK293 cells assessed as GABA-induced response in presence of GABA EC20 by FMP assay.

As a reminder, the EC50 is the midpoint of the concentration-response curve.

Sequence of Gamma-aminobutyric acid receptor subunit alpha-4/beta-1/delta (P48169 whole entry): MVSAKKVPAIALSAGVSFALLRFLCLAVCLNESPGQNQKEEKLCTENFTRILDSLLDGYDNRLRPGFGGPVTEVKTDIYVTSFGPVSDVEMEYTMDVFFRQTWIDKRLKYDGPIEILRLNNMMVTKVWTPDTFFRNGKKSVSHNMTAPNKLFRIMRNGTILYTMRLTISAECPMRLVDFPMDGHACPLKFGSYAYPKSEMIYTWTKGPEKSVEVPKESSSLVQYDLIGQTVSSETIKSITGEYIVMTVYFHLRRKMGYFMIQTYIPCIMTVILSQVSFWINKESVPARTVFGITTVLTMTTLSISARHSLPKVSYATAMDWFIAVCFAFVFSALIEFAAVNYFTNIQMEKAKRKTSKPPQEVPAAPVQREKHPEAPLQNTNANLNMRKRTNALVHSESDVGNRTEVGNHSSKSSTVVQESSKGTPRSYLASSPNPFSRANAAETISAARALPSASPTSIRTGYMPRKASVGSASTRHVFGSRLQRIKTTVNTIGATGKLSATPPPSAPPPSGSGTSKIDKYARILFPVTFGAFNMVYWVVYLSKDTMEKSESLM
Sequence of Gamma-aminobutyric acid receptor subunit alpha-4/beta-1/delta (O14764 whole entry): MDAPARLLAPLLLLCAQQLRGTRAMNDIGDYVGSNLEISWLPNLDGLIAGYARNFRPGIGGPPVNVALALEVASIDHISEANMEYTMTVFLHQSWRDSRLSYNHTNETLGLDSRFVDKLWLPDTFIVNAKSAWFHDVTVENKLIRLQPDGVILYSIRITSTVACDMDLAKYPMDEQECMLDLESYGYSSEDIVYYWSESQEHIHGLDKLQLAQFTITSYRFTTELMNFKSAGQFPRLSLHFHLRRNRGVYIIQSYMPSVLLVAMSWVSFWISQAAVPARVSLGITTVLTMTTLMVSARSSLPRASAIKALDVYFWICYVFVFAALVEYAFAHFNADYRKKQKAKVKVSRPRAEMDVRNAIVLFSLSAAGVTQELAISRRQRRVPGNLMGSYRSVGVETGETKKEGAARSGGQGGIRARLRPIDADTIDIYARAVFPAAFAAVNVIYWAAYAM
Sequence of Gamma-aminobutyric acid receptor subunit alpha-4/beta-1/delta (P18505 whole entry): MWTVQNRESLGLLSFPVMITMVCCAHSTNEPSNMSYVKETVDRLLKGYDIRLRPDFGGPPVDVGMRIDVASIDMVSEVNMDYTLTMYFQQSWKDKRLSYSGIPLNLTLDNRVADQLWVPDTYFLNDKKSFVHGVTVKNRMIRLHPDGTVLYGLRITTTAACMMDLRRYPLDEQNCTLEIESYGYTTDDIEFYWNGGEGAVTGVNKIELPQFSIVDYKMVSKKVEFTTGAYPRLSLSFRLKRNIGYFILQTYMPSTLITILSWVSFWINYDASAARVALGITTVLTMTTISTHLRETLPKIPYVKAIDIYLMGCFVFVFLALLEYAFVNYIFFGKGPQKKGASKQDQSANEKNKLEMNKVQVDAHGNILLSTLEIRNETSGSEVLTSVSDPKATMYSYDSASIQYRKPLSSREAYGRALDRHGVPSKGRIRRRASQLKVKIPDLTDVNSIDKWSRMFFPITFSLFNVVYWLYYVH

Consider `Clc1ccc(-c2noc(-c3c(-c4ccccc4)nc4ccccn34)n2)cc1`, for which the solubility entry in series [1] is reported as “Insoluble”.
Take `Cc1ccc2nc(-c3cccs3)c(NC(=O)c3ccc(Cl)cc3)n2c1`: the figures for the EC50 in series [2] and in series [3] were 160 nM and 162 nM, respectively.
The like results for `O=C(Nc1c(-c2cccs2)nc2ccc(Cl)cn12)c1ccc(Cl)cc1` were, in that order, 140 nM and 145 nM.
Regarding `O=C(Nc1c(-c2cccs2)nc2ccc(C(F)(F)F)cn12)c1ccc(Cl)cc1`, the EC50 in series [2] and in series [3] was 1100 nM throughout.
As for `O=C(Nc1c(-c2cccs2)nc2ccccn12)c1ccc(Cl)cc1`, the EC50 in series [2] is 980 nM; in series [3], 977 nM.
As for `O=C(Nc1c(-c2cccs2)nc2ccc(Br)cn12)c1ccc(Cl)cc1`, the figures for the EC50 in series [2] and in series [3] were 60 nM and 60.3 nM, respectively.
With `O=C(Nc1c(-c2cccs2)nc2ccc(F)cn12)c1ccc(Cl)cc1`, the EC50 in series [2] was 1920 nM; in series [3], 1910 nM.
